Experimental findings from US6432880B1, “Substituted 2-phenylpyridines as herbicides” (BASF Aktiengesellschaft, priority 1999, dated 2002) are described below.

One may read the melting point as the temperature of the solid-liquid transition.

`CS(=O)(=O)Oc1cnc(-c2cc(O)c(Cl)cc2F)c(Cl)c1` [Ia.362, 2-(4-chloro-2-fluoro-5-hydroxyphenyl)-3-chloro-5-(methylsulfonyl-oxy) pyridine] returned a melting point of 132 to 133 °C.

`COc1cc(-c2ncc(OS(C)(=O)=O)cc2Cl)c(F)cc1Cl` [Ia.363, 2-(4-chloro-2-fluoro-5-methoxyphenyl)-3-chloro-5-(methylsulfonyl-oxy)pyridine]: the melting point lay in the range of 118 to 120 °C.
